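Five compound concentrations were applied to cells in 96-well plates for 48 hours; endpoints were derived by simple linear interpolation of the resulting dose-response curve. At the GI50, growth is halved.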 Calls of active or inactive are those of the source. Rule as the data show it: active = GI50 up to about 1.1 µM and inactive = higher.
Legend:
Test in all cases: inhibition of tumour cell growth, NCI panel, 48 h
COLO 205 = tested on: COLO 205
MOLT-4 = tested on: MOLT-4
NCI-H460 = tested on: NCI-H460
NCI-H522 = tested on: NCI-H522
LOX IMVI = tested on: LOX IMVI
IGROV-1 = tested on: IGROV-1
SK-MEL-2 = tested on: SK-MEL-2
DMS-273 = tested on: DMS-273
RXF 393 = tested on: RXF 393
SK-MEL-28 = tested on: SK-MEL-28
HL-60 = tested on: HL-60
UACC-257 = tested on: UACC-257
OVCAR-8 = tested on: OVCAR-8
SK-OV-3 = tested on: SK-OV-3
SNB-75 = tested on: SNB-75
KM12 = tested on: KM12
U-251 = tested on: U-251
A498 = tested on: A498
HT-29 = tested on: HT-29
HCC 2998 = tested on: HCC 2998
Malme-3M = tested on: Malme-3M
A549 = tested on: A549
RXF 631 = tested on: RXF 631
SW-620 = tested on: SW-620
M19-MEL = tested on: M19-MEL
SF-268 = tested on: SF-268
ACHN = tested on: ACHN
CAKI-1 = tested on: CAKI-1
RPMI-8226 = tested on: RPMI-8226
UO-31 = tested on: UO-31
HCT-15 = tested on: HCT-15
K562 = tested on: K562
SN12C = tested on: SN12C
SNB-78 = tested on: SNB-78
SNB-19 = tested on: SNB-19
OVCAR-4 = tested on: OVCAR-4
UACC-62 = tested on: UACC-62
HOP-92 = tested on: HOP-92
NCI-H23 = tested on: NCI-H23
LXFL 529 = tested on: LXFL 529
XF498 = tested on: XF498
OVCAR-3 = tested on: OVCAR-3
M14 = tested on: M14
SF-295 = tested on: SF-295
EKVX = tested on: EKVX
HOP-62 = tested on: HOP-62
CCRF-CEM = tested on: CCRF-CEM
OVCAR-5 = tested on: OVCAR-5
DLD-1 = tested on: DLD-1
786-0 = tested on: 786-0
HCT-116 = tested on: HCT-116
TK-10 = tested on: TK-10
SF-539 = tested on: SF-539
SK-MEL-5 = tested on: SK-MEL-5
KM-20L2 = tested on: KM-20L2
SR = tested on: SR
HOP-18 = tested on: HOP-18
DMS-114 = tested on: DMS-114
NCI-H226 = tested on: NCI-H226

Measured: GI50

Cc1cc(C)c(S(=O)(=O)ONC(=O)OC(C)(C)C)c(C)c1
> 100 µM: HCT-15
inactive: COLO 205 > 100 µM | MOLT-4 > 100 µM | NCI-H460 > 100 µM | NCI-H522 > 100 µM | LOX IMVI > 100 µM | IGROV-1 > 100 µM | SK-MEL-2 > 100 µM | DMS-273 > 100 µM | RXF 393 > 100 µM | SK-MEL-28 > 100 µM | HL-60 > 100 µM | UACC-257 > 100 µM | OVCAR-8 > 100 µM | SK-OV-3 > 100 µM | SNB-75 > 100 µM | KM12 > 100 µM | U-251 > 100 µM | A498 > 100 µM | HT-29 > 100 µM | HCC 2998 > 100 µM | Malme-3M > 100 µM | A549 > 100 µM | RXF 631 > 100 µM | SW-620 > 100 µM | M19-MEL > 100 µM | SF-268 > 100 µM | ACHN > 100 µM | CAKI-1 > 100 µM | RPMI-8226 > 100 µM | UO-31 > 100 µM | K562 > 100 µM | SN12C > 100 µM | SNB-78 > 100 µM | SNB-19 > 100 µM | OVCAR-4 > 100 µM | UACC-62 > 100 µM | HOP-92 > 100 µM | NCI-H23 > 100 µM | LXFL 529 > 100 µM | XF498 > 100 µM | OVCAR-3 > 100 µM | M14 > 100 µM | SF-295 > 100 µM | EKVX > 100 µM | HOP-62 > 100 µM | CCRF-CEM > 100 µM | OVCAR-5 > 100 µM | DLD-1 > 100 µM | 786-0 > 100 µM | HCT-116 > 100 µM | TK-10 > 100 µM | SF-539 > 100 µM | SK-MEL-5 > 100 µM

CC1=Nc2ccccc2C1C(Cc1ccccc1N)c1c(C)[nH]c2ccccc12 (centres undefined)
16.4 µM: HCT-15
inactive: COLO 205 16.6 µM | MOLT-4 20.9 µM | NCI-H460 17.2 µM | NCI-H522 14 µM | LOX IMVI 15 µM | IGROV-1 17.4 µM | SK-MEL-2 5.92 µM | RXF 393 20.2 µM | SK-MEL-28 18.8 µM | HL-60 14 µM | UACC-257 17.8 µM | OVCAR-8 16.6 µM | SK-OV-3 24.6 µM | SNB-75 17.5 µM | KM12 16.6 µM | U-251 16.8 µM | KM-20L2 15 µM | A498 16 µM | HT-29 17.8 µM | HCC 2998 15.4 µM | Malme-3M 17.3 µM | A549 18.3 µM | SR 21.9 µM | RXF 631 18.2 µM | SW-620 15.5 µM | M19-MEL 17.4 µM | SF-268 8.17 µM | ACHN 15.2 µM | RPMI-8226 18.5 µM | UO-31 14.7 µM | HOP-18 12.4 µM | K562 19.5 µM | SN12C 18.7 µM | SNB-19 22.7 µM | UACC-62 13.5 µM | HOP-92 12.3 µM | DMS-114 19.2 µM | NCI-H23 18.2 µM | LXFL 529 16 µM | XF498 18.5 µM | OVCAR-3 15.1 µM | M14 15 µM | SF-295 12.6 µM | EKVX 20.5 µM | HOP-62 14.4 µM | CCRF-CEM 17.7 µM | OVCAR-5 17.6 µM | DLD-1 18.2 µM | 786-0 15.1 µM | HCT-116 16.9 µM | NCI-H226 15 µM | TK-10 16.9 µM | SF-539 17.6 µM | SK-MEL-5 14.6 µM

— ChEMBL document CHEMBL1201862, “PubChem BioAssay data set” (2004)
